One assay deals with Nonstructural protein 1 (Influenza A virus, UniProt Q194T2). It counts as functional, Influenza A virus (A/California/07/2009(H1N1)).
The next assay has as its target Beta-galactosidase (Escherichia coli, UniProt Q8VNN2). Description: detection-enzyme interference by beta-gal modulators – biochemical, E. coli enzyme, set 3, artefact control for CCR6 antagonist project, dose response (AID 504712). It counts as functional.
The target in assay [1] is T1, Sphingosine 1-phosphate receptor 4 (Homo sapiens, UniProt O95977).
T1 sequence (O95977 whole entry): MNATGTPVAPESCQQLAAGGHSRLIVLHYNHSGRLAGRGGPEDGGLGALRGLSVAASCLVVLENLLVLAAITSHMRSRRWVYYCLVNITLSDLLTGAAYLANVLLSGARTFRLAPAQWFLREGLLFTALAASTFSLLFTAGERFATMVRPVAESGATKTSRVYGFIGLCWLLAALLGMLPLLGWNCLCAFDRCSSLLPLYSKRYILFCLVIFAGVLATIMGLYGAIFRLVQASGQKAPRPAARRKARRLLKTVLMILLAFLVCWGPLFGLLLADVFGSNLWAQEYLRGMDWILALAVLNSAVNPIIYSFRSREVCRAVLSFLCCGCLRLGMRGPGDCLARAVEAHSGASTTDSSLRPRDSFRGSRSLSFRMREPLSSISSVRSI
Description: Fluorescence dose response cell-based high throughput screening assay for antagonists of the Sphingosine 1-Phosphate Receptor 4 (S1P4). [Related pubchem assays: 1524 (Confirmation in triplicates.), 1510 (Primary screen.)]. It counts as functional.

A further assay concerns the target T2, Hexokinase HKDC1 (Homo sapiens, UniProt Q2TB90).
T2 sequence (Q2TB90 whole entry): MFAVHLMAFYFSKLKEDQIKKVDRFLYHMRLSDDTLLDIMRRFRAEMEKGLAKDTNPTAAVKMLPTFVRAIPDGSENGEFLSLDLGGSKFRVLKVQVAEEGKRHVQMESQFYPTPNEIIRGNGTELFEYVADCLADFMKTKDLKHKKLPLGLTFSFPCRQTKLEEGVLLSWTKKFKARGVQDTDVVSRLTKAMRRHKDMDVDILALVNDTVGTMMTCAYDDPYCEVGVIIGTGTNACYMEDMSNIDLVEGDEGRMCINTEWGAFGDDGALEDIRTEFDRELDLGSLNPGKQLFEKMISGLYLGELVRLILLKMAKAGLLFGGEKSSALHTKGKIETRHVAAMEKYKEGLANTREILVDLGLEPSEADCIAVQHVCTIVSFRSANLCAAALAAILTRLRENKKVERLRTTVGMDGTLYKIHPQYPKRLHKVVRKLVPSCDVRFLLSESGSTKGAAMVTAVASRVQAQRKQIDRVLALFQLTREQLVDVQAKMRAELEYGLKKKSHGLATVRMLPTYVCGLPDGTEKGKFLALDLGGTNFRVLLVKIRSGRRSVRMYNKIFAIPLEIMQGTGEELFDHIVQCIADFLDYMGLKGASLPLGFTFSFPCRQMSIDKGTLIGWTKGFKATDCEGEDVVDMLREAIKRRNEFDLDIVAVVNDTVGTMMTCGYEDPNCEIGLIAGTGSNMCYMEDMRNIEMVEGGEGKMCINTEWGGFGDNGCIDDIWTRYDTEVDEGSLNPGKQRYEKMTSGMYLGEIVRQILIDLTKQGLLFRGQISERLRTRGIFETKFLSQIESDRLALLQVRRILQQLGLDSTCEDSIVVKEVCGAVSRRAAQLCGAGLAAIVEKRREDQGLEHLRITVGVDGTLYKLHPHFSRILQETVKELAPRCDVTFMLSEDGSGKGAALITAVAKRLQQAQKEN
Kind of assay: inhibition of HKDC1 glucose phosphorylation – biochemical, W721R variant, dose response (AID 504729). It counts as functional.

In assay [2] the target is Heat shock protein HSP 90-alpha (Homo sapiens, UniProt P07900). Kind of assay: Luminescence-based dose response biochemical high throughput screening assay for inhibitors of the Heat Shock Protein 90 (HSP90). [Related pubchem assays: 1831 (Summary AID.), 1846 (Confirmation screen.), 1789 (Primary screen.)].
Assay [3] is described as follows: general mammalian cell viability loss – inhibitor set, cherry-pick, set 2, cytotoxicity control for miR-122 modulator project, dose response (AID 720697). It counts as functional, cell-based.
The target in assay [4] is Neuropeptide Y receptor type 1 (Homo sapiens, UniProt P25929). It counts as functional.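 Also: HEK293 cells with a CNG channel challenged with NPY then isoproterenol; potency as antagonist that reverses NPY suppression of cAMP signal.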
Assay [5] has as its target Dual specificity tyrosine-phosphorylation-regulated kinase 1A (Rattus norvegicus, UniProt Q63470). It counts as biochemical, Homo sapiens.
In assay [6] the target is Protein-tyrosine kinase 2-beta (Homo sapiens, UniProt Q14289).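 Also: potency of inhibitors of PYK2 kinase phosphorylation of poly-GT substrate.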
The subject of the next assay is HEK293. Description: SAR Analysis of small molecule inhibitors of T-cell specific antigen receptor-induced NF-kB activation in a HEK-293T cell line using a luminescence assay - Set 2. [Related pubchem assays (depositor defined):AID435003, AID435012, AID489026]. It counts as functional, cell-based. The conditions noted are these: Homo sapiens.
Assay [7] can be described thus: decrease of insulin promoter-GFP reporter – imaging, high-content screening, mouse beta cells (AID 1628). It counts as functional. Particulars: MIN6.
Assay [8] deals with T3, Serine/threonine-protein phosphatase (Candida dubliniensis (strain CD36 / CBS 7987 / NCPF 3949 / NRRLY-17841) (Yeast), UniProt B9W6M3).
T3 sequence (B9W6M3 whole entry): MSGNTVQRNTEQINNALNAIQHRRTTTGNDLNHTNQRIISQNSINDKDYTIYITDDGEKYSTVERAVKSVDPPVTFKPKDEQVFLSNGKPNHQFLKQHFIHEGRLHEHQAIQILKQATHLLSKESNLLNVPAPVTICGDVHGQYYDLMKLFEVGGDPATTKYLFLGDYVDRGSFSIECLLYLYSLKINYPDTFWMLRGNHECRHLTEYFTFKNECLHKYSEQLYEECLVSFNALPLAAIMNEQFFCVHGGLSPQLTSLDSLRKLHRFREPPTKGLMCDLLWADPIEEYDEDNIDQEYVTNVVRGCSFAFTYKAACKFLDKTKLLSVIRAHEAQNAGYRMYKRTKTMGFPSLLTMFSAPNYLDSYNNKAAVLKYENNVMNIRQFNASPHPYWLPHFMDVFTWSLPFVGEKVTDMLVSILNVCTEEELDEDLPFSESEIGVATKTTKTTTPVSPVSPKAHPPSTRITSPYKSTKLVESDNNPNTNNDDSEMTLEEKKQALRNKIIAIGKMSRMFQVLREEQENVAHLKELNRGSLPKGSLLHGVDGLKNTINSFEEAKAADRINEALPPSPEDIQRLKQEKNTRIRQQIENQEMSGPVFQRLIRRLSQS
Description: blockers of CaCl2-induced CDRE-lacZ signaling – S. cerevisiae, luminescence, secondary, dose response (AID 2388).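 Also: yeast reporter cells carrying a calcineurin-responsive lacZ construct stimulated with calcium chloride; luminescent beta-galactosidase reporter signal in whole cells rather than isolated phosphatase activity; potency for inhibition where a drop in reporter signal means calcineurin blockade.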 It counts as functional, cell-based.

Assay [9] concerns the target Small ubiquitin-related modifier 2 (Homo sapiens, UniProt P61956). Description: SUMO2 binding disruption by SUMO1 hits – biochemical, FRET, human SUMO2, uHTS hits, selectivity assay for SUMO1 interaction inhibitor project, dose response (AID 624384). It counts as functional. The conditions noted are these: read-out: IC50_Mean.
Another assay addresses Fatty acid synthase (Homo sapiens, UniProt P49327). Description: inhibition of human FAS-TE enzyme activity – biochemical, kinetic fluorescence intensity, dose response (AID 624326).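 Also: rate of fluorescence rise from hydrolysis of a fluorogenic O-methyl fluorescein ester substrate.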 It counts as functional.

Data on five compounds can be found in ChEMBL document CHEMBL1201862, “PubChem BioAssay data set” (2004).

SMILES strings stand for the structures. The source made the active and inactive calls. Bounds are passed on as bounds.

Chain of Fatty acid synthase (P49327 whole entry): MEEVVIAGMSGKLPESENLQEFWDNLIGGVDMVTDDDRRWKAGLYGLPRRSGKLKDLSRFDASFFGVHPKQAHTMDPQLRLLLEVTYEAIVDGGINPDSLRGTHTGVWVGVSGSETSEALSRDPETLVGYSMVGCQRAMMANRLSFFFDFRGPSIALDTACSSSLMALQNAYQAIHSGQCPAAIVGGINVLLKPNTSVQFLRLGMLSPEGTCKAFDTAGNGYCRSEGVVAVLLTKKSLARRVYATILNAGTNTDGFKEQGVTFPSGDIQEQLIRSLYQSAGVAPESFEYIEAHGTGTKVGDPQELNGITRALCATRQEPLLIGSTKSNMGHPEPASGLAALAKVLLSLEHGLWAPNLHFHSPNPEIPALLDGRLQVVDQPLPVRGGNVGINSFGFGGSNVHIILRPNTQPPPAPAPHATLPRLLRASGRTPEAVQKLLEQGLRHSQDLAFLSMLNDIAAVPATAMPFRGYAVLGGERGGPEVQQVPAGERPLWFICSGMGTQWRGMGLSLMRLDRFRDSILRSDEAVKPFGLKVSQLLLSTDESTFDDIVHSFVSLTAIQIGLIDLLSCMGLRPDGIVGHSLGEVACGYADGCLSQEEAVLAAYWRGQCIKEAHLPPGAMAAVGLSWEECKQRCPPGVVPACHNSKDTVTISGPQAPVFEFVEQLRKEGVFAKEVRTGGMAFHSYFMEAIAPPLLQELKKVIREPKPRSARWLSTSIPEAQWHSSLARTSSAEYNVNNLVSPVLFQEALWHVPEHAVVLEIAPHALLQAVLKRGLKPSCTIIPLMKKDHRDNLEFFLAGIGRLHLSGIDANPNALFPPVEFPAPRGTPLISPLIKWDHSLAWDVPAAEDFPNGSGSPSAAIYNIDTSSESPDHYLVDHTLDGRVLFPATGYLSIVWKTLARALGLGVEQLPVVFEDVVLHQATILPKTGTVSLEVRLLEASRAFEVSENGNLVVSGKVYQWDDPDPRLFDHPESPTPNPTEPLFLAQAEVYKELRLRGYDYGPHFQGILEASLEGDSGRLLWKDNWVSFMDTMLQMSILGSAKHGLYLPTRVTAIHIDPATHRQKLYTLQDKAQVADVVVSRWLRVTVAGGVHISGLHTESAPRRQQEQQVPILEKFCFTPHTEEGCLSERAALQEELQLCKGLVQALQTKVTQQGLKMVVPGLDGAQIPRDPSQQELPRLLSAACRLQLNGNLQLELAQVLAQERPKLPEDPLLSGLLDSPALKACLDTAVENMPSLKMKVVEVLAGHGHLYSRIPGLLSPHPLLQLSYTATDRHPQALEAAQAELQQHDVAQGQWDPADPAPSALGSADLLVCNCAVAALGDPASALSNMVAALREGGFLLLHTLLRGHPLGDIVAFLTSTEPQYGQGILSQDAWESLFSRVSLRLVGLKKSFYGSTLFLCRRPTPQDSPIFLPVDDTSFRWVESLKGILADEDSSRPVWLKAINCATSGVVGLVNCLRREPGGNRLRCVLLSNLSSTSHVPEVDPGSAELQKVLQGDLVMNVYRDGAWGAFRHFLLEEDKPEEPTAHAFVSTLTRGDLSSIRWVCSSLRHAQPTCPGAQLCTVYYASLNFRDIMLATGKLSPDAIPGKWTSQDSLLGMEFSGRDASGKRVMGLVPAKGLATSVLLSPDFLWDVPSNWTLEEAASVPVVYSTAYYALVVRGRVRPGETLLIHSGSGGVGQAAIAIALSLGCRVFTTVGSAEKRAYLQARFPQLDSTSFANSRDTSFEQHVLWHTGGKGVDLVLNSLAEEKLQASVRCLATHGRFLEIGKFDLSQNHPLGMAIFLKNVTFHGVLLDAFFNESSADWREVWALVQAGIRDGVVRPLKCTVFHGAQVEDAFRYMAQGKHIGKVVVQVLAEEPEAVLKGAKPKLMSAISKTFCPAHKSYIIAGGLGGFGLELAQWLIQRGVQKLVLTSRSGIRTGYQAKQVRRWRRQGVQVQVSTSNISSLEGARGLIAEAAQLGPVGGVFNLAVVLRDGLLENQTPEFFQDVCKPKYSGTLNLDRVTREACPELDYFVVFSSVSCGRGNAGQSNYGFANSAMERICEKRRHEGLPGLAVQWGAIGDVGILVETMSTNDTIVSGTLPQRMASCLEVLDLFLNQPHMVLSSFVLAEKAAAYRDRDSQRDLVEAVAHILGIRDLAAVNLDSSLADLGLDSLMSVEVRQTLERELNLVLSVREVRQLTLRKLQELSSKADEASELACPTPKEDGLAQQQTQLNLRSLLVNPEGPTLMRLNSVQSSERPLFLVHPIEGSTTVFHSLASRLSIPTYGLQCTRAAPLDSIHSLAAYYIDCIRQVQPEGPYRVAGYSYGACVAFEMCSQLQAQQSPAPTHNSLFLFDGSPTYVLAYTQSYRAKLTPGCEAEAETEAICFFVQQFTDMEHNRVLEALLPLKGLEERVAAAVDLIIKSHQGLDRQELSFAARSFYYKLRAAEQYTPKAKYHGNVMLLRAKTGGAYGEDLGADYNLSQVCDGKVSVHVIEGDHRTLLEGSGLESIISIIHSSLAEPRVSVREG
Chain of Neuropeptide Y receptor type 1 (P25929 whole entry): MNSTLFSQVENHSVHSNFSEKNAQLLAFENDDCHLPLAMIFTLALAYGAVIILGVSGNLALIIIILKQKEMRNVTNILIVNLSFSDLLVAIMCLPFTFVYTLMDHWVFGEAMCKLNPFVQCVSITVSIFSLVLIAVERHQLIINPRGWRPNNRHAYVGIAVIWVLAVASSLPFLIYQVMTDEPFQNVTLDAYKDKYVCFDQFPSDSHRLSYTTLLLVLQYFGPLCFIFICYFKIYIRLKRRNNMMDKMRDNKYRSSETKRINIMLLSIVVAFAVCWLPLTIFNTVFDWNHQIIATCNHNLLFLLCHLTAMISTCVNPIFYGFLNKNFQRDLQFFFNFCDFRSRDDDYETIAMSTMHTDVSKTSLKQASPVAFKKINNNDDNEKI
Chain of Small ubiquitin-related modifier 2 (P61956 whole entry): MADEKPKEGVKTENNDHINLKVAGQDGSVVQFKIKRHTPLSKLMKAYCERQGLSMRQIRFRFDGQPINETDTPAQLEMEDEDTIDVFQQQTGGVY
Chain of Beta-galactosidase (Q8VNN2 whole entry): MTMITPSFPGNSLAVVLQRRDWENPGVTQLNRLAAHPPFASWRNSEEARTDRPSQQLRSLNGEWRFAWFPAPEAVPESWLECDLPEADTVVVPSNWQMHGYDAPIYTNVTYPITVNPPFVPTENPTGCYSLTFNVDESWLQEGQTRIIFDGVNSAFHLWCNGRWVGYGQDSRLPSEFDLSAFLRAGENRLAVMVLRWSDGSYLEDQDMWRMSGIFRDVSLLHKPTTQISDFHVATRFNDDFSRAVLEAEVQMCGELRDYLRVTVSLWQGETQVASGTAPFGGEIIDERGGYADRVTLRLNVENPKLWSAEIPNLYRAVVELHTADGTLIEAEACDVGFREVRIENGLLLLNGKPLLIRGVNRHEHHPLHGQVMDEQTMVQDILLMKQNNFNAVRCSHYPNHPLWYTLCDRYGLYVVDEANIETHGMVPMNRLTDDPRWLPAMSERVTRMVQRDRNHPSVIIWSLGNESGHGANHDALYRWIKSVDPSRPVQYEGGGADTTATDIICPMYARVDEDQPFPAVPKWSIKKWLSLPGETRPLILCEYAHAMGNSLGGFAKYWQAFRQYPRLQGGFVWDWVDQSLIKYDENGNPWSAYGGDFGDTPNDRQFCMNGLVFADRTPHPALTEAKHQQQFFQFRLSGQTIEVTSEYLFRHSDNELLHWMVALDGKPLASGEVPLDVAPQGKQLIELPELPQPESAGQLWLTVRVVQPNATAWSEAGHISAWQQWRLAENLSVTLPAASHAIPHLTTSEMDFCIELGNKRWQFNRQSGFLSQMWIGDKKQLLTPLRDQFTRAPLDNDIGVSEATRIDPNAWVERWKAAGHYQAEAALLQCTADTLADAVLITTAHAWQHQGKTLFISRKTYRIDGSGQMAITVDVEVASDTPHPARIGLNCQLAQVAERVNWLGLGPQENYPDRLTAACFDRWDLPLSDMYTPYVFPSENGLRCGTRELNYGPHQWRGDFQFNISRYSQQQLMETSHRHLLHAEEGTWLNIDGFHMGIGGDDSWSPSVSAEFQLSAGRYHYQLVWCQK
Chain of Protein-tyrosine kinase 2-beta (Q14289 whole entry): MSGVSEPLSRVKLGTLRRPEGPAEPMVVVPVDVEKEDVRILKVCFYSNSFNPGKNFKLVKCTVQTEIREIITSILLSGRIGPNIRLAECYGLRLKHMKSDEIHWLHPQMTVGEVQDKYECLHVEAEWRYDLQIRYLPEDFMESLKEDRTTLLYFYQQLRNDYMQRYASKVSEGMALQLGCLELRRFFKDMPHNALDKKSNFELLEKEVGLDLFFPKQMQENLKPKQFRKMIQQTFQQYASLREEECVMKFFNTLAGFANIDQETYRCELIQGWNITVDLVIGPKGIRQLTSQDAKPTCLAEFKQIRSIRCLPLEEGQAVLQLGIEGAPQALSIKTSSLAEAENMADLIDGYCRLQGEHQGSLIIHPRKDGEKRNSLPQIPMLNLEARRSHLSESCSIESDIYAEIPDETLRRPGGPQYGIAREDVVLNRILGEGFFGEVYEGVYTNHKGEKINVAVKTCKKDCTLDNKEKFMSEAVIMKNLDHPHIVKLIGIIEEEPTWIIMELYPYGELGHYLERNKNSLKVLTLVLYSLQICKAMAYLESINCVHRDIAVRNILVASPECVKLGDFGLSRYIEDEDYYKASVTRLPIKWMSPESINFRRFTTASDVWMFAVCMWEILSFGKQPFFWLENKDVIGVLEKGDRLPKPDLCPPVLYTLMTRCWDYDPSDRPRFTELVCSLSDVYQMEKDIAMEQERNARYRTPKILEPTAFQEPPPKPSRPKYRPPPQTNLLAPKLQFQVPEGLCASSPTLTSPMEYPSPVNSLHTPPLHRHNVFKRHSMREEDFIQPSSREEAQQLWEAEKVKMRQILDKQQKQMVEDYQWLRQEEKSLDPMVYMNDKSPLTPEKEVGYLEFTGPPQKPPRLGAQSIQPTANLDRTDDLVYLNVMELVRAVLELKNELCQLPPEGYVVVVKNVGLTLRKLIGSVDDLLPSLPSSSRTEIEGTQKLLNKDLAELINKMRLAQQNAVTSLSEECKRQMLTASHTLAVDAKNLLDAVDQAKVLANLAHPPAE

Consider `COC(CNC(=O)c1ccc2c3c(onc13)-c1ccccc1C2=O)OC`, for which the IC50 at Nonstructural protein 1 was 82.4 µM (active); at Beta-galactosidase, > 66.6 µM (inactive); in [1] it was 1.63 µM (active).
Turning to `O=C(O)c1ccc(NC2=C/C(=N/S(=O)(=O)c3ccccc3)c3ccccc3C2=O)cc1`, the IC50 at Hexokinase HKDC1 was 2.74 µM (active); in assay [2], 0.967 µM (active).
Broadly, the AC50 is the concentration giving half of the maximal activity seen. Consider `Nc1ccc2c(c1)C(=O)C(=O)c1ccccc1-2`, for which the results for the AC50 in [3] and in assay [5] were 2.19 µM (active) and 0.547 µM (active), respectively. The IC50 in assay [4] is 4.54 µM (active); in [6], > 69.5 µM (not active).
One may read the EC50 as the concentration needed to bring the measured effect to its halfway point. In the case of `CCCC(=O)NC(c1ccccc1OC)c1ccc2cccnc2c1O` (centres undefined), the IC50 with HEK293 is 3.97 µM (active); in [7], 1.71 µM (active). Moreover, in assay [8], the EC50 is > 180 µM (inactive).
With `COc1cc(-c2ccc(Nc3ccccc3C(=O)O)c(OC)c2)ccc1Nc1ccccc1C(=O)O`, the results for the IC50 (in assay [9]; on Fatty acid synthase) were 3.91 µM (active) and 6.68 µM (active), respectively.
